These results are taken from patent US9512152B2, “Phospholipid compound containing unsaturated fatty acid derivative having cyclopropane ring” (NISHIZAKI BIOINFORMATION RESEARCH INSTITUTE, priority 2013, dated 2016).

Test [1] deals with C57BL/KsJ-lepr db/lepr db mouse. Description: Glucose tolerance test in type 2 diabetes model mouse. In kind it is in vivo. Particulars: oral, 0.01-3 mg/kg, 30 min before glucose 2 g/kg, FIG. 10. The protocol:
C57BL/KsJ-lepr^db/lepr^db mouse (female, 8-week-old) (CLEA Japan; Tokyo, Japan) was used. The glucose tolerance test was performed using the mouse starved for 12 hr. Glucose (2 g/ml/kg body weight) was administered by gavage, and the time point thereof was taken as 0 h. diDCP-LA-PE (0.01, 0.1, 1, 3 mg/kg), insulin (0.75 U/kg) or brine was orally administered 30 min before administration of glucose. The blood (10 μl) was collected from the tail vein at the time points of 0, 30, 60, and 90 min, and each plasma sample which was labeled with p-aminobenzylethylester and prepared from the obtained blood was loaded on high performance liquid chromatography (HPLC) system (LC-10ATvp; Shimadzu Co., Kyoto, Japan). The glucose concentration was calculated from a peak area/concentration analytical curve prepared using the standard glucose solution.

Test [2] has as its target T1, PKCι (Homo sapiens, UniProt P41743).
T1 sequence (P41743 1-596): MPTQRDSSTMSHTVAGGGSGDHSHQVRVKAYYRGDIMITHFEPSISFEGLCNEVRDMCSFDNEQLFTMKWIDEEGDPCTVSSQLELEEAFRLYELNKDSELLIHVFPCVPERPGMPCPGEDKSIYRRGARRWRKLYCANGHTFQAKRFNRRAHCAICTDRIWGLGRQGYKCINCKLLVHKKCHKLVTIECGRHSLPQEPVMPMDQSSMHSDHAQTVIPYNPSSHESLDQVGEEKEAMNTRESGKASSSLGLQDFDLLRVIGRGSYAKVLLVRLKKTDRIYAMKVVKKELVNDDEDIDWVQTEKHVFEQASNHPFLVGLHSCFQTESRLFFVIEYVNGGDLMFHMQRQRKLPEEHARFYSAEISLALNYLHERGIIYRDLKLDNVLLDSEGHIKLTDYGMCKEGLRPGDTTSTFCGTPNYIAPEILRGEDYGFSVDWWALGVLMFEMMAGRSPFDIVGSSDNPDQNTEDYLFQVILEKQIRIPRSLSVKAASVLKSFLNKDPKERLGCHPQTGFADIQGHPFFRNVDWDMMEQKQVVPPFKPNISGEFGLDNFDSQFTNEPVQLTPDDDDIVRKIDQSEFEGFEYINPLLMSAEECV
Description: Cell-free PKC assay. As to conditions: 100 μM, FIG. 6. In kind it is biochemical. The protocol:
PKC activity in a cell-free system was quantified by the method described in a previous report (Kanno T et al. J Lipid Res 2006; 47: 1146-1156). In short, synthesized PKC substrate peptide (10 μM) was reacted with various PKC isozymes in a medium containing 20 mM Tris-HCl (pH 7.5), 5 mM magnesium acetate, 10 μM ATP, and DCP-LA-phospholipid in the absence of phosphatidylserine and diacylglycerol at 30° C. for 5 min. A Ca^2+-free medium was used for novel PKC such as PKC-δ, -ε and the like, and a 100 μM CaCl2-containing medium was used for other PKC isozymes. They were loaded on reversed-phase HPLC (LC-10ATvp, Shimadzu Co., Kyoto, Japan), and the peaks of substrate peptide and new resultant products were measured at an absorbance of 214 nm. The areas of non-phosphorylated PKC substrate peptide and phosphorylated PKC substrate peptide were measured (total area corresponds to the concentration of PKC substrate peptide used in this Example), and the amount of the phosphorylated substrate peptide was calculated. The amount of the phosphorylated substrate peptide (pmol/1 min) per 1 min was used as an index of the PKC activity.

Test [3] relates to Akt in 3T3L1-GLUT4myc adipocytes. Description: Akt activation, Western blotting of phospho-Akt (Thr308, Ser473). Type of test: cell-based. As to conditions: diDCP-LA-PE 1 μM, FIG. 4. As for the experimental part:
3T3L1-GLUT4myc fibroblast strain expressing GLUT4myc was used. The cells are constructed by inserting human c-MYC epitope (14 amino acids) into the first ectodomain. The cells were cultured in Dulbecco's Modified Eagles Medium (DMEM) added with 10% (v/v) bovine serum, penicillin (final concentration, 100 U/ml) and streptomycin (final concentration, 0.1 mg/ml) in a humid environment under 5% CO2 and 95% air at 37° C. When the cells reached confluence (day 0), the medium was exchanged with DMEM added with 10% (v/v) fetal bovine serum (FBS), 1 μM dexamethasone, 0.5 mM 3-isobutyl-methyl-xanthine and 0.1 mg/ml insulin to allow for differentiation from fibroblast into adipocyte. The medium was exchanged with DMEM added with 10% (v/v) FBS on day 3, day 7 and day 11. On day 14, the cells were used for the experiment. […]
For Western blotting, the protein was separated by SDS-polyacrylamide gel electrophoresis (SDS-PAGE), and transferred onto polyvinylidene difluoride membranes. […] The immunoreactivity was detected using ECL kit (GE Healthcare, Piscataway, N.J., USA), and visualized using a chemical luminescence detection system (chemiluminescence detection system; GE Healthcare). The protein concentration of each sample was measured using BCA protein assay kit (Thermo Fisher Scientific, Waltham, Mass., USA).

Each structure is given as a SMILES string.

With `CCCCCC1CC1CC1CC1CCCCCCCC(=O)OC[C@H](COP(=O)(O)OCCN)OC(=O)CCCCCCCC1CC1CC1CC1CCCCC` (stereo partly drawn) [diDCP-LA-PE, 1,2-o-bis-[8-{2-(2-pentyl-cyclopropylmethyl)-cyclopropyl}-octanoyl]-sn-glycero-3-phosphatidylethanolamine], in test [1], the “Decrease of blood glucose level” value was “decrease the blood glucose level in a dose-dependent manner”. Further, the “PKCι activation, specificity” value in test [2] was “specific activating agent of PKCι and PKCζ”. For the same compound, the “Akt activation (phosphorylation of Thr308 and Ser473 relative to total Akt)” value in test [3] is on record as “has an action to activate Akt”.
